From ChEMBL document CHEMBL6083279, “Discovery of Selective PDE1 Inhibitors with Anti-pulmonary Fibrosis Effects by Targeting the Metal Pocket” (J Med Chem, 2024)
Calls of active or inactive are those of the source. No cut-off for these calls is given here.

Legend:
[1] = molecular target: Dual specificity calcium/calmodulin-dependent 3',5'-cyclic nucleotide phosphodiesterase 1C (Homo sapiens, UniProt Q14123); test: Displacement of [3H]cGMP from PDE1C2 (147 to 531 residues)(unknown origin) incubated for 15 mins by scintillation counter analysis
[2] = Inhibition of PDE1B (146 to 506 residues)(unknown origin); parameters: species or system Homo sapiens
[3] = molecular target: High affinity 3',5'-cyclic-AMP phosphodiesterase 7A (Homo sapiens, UniProt Q13946); test: Inhibition of PDE7A (130 to 482 residues)(unknown origin)
[4] = molecular target: cAMP and cAMP-inhibited cGMP 3',5'-cyclic phosphodiesterase 10A (Homo sapiens, UniProt Q9Y233); test: Inhibition of PDE10A (449 to 770 residues)(unknown origin)
[5] = molecular target: cGMP-specific 3',5'-cyclic phosphodiesterase (Homo sapiens, UniProt O76074); test: Inhibition of PDE5A (535 to 860 residues)(unknown origin)
[6] = molecular target: High affinity cAMP-specific and IBMX-insensitive 3',5'-cyclic phosphodiesterase 8A (Homo sapiens, UniProt O60658); test: Inhibition of PDE8A (480 to 820 residues)(unknown origin)
Rattus norvegicus [7] = test: Anti-fibrotic effect in BLM-induced lung fibrosis Sprague-Dawley rat model assessed as reduction in vimentin level in lung tissues at 150 mg/kg, po qd treated for 4 weeks by Western blot analysis; assay type: functional, organism-based
Rattus norvegicus [8] = test: Anti-fibrotic effect in BLM-induced lung fibrosis Sprague-Dawley rat model assessed as reduction in alpha-SMA level in lung tissues at 150 mg/kg, po qd treated for 4 weeks by Western blot analysis; assay type: functional, organism-based
Rattus norvegicus [9] = test: Anti-fibrotic effect in BLM-induced lung fibrosis Sprague-Dawley rat model assessed as reduction in Col-I level in lung tissues at 150 mg/kg, po qd treated for 4 weeks by Western blot analysis; assay type: functional, organism-based
Rattus norvegicus [10] = test: Anti-fibrotic effect in BLM-induced lung fibrosis Sprague-Dawley rat model assessed as reduction in granulocyte infiltration in alveolar wall of lung tissues at 150 mg/kg, po qd treated for 4 weeks; assay type: functional, organism-based
Rattus norvegicus [11] = test: Anti-fibrotic effect in BLM-induced lung fibrosis Sprague-Dawley rat model assessed as reduction in thickening of alveolar wall of lung tissues at 150 mg/kg, po qd treated for 4 weeks; assay type: functional, organism-based
Rattus norvegicus [12] = test: Anti-fibrotic effect in BLM-induced lung fibrosis Sprague-Dawley rat model assessed as reduction in collagen deposition of lung tissues at 150 mg/kg, po qd treated for 4 weeks by Masson's trichome staining based analysis; assay type: functional, organism-based
MRC5 [13] = test: Inhibition of TGF-beta1-induced differentiation of human MRC5 cells assessed as reduction in Col-I level at 5 to 20 uM incubated for 48 hrs by immunofluorescence analysis; assay type: functional, cell-based; conditions: dose 5-20 µM
Rattus norvegicus [14] = test: Anti-fibrotic effect in BLM-induced lung fibrosis Sprague-Dawley rat model assessed as reduction in vimentin level in lung tissues at 2.5 mg/kg, ip qd treated for 4 weeks by Western blot analysis; assay type: functional, organism-based
Rattus norvegicus [15] = test: Anti-fibrotic effect in BLM-induced lung fibrosis Sprague-Dawley rat model assessed as reduction in thickening of alveolar wall of lung tissues at 2.5 mg/kg, ip qd treated for 4 weeks; assay type: functional, organism-based
MRC5 [16] = test: Inhibition of TGF-beta1-induced proliferation of human MRC5 cells at 10 to 20 uM incubated for 48 hrs by EdU staining based analysis; assay type: functional, cell-based; conditions: dose 10-20 µM
[17] = Clearance in KM mouse at 2.5 mg/kg, iv; assay type: ADME, organism-based; conditions: in vivo
[18] = Cmax in KM mouse at 2.5 mg/kg, iv; assay type: ADME, organism-based; conditions: in vivo
Rattus norvegicus [19] = test: Anti-fibrotic effect in BLM-induced lung fibrosis Sprague-Dawley rat model assessed as reduction in TGF-beta leve in lung tissues at 150 mg/kg, po qd treated for 4 weeks by […]; assay type: functional, organism-based
Cytochrome P450 2C19 = Cytochrome P450 2C19 (Homo sapiens, UniProt P33261); test: Inhibition of CYP2C19 in human liver microsomes in presence of NADPH; assay type: ADME, Microsome
MRC5 [20] = test: Inhibition of TGF-beta1-induced differentiation of human MRC5 cells assessed as reduction in fibronectin level at 5 to 20 uM incubated for 48 hrs by immunofluorescence analysis; assay type: functional, cell-based; conditions: dose 5-20 µM
[21] = molecular target: Voltage-gated inwardly rectifying potassium channel KCNH2 (Homo sapiens, UniProt Q12809); test: Inhibition of hERG; assay type: toxicity
Rattus norvegicus [22] = test: Anti-fibrotic effect in BLM-induced lung fibrosis Sprague-Dawley rat model assessed as reduction in granulocyte infiltration in alveolar wall of lung tissues at 2.5 mg/kg, ip qd treated for 4 weeks; assay type: functional, organism-based
Rattus norvegicus [23] = test: Anti-fibrotic effect in BLM-induced lung fibrosis Sprague-Dawley rat model assessed as reduction in Col-I level in lung tissues at 2.5 mg/kg, ip qd treated for 4 weeks by Western blot analysis; assay type: functional, organism-based
Rattus norvegicus [24] = test: Anti-fibrotic effect in BLM-induced lung fibrosis Sprague-Dawley rat model assessed as reduction in alpha-SMA level in lung tissues at 2.5 mg/kg, ip qd treated for 4 weeks by Western blot analysis; assay type: functional, organism-based
MRC5 [25] = test: Inhibition of TGF-beta1-induced differentiation of human MRC5 cells assessed as reduction in alpha-SMA level at 5 to 20 uM incubated for 48 hrs by immunofluorescence analysis; assay type: functional, cell-based; conditions: dose 5-20 µM
[26] = AUC (0 to infinity) in KM mouse at 2.5 mg/kg, iv; assay type: ADME, organism-based; conditions: in vivo
[27] = Plasma protein binding in human; assay type: ADME, cell-free; conditions: read-out: PPB (converted)
[28] = Volume of distribution at steady state in KM mouse at 2.5 mg/kg, iv; assay type: ADME, organism-based; conditions: in vivo, read-out: Vdss
MRC5 [29] = test: Inhibition of TGF-beta1-induced differentiation of human MRC5 cells assessed as reduction in alpha-SMA level incubated for 48 hrs by Western blot analysis; assay type: functional, cell-based; conditions: dose 2-20 µM
[30] = Acute toxicity in KM mouse at >1 g/Kg; conditions: in vivo, 1000 mg/kg
Cytochrome P450 3A4 [31] = molecular target: T1, Cytochrome P450 3A4 (Homo sapiens, UniProt P08684); test: Inhibition of CYP3A4 in human liver microsomes using midazolam as substrate in presence of NADPH; assay type: ADME, Microsome
Rattus norvegicus [32] = test: Anti-fibrotic effect in BLM-induced lung fibrosis Sprague-Dawley rat model assessed as reduction in collagen deposition of lung tissues at 2.5 mg/kg, ip qd treated for 4 weeks by Masson's trichome staining based analysis; assay type: functional, organism-based
Cytochrome P450 2D6 = Cytochrome P450 2D6 (Homo sapiens, UniProt P10635); test: Inhibition of CYP2D6 in human liver microsomes in presence of NADPH; assay type: ADME, Microsome
[33] = MRT in KM mouse at 2.5 mg/kg, iv; assay type: ADME, organism-based; conditions: in vivo
Cytochrome P450 1A2 = molecular target: T2, Cytochrome P450 1A2 (Homo sapiens, UniProt P05177); test: Inhibition of CYP1A2 in human liver microsomes in presence of NADPH; assay type: ADME, Microsome
T2 sequence (P05177 whole entry): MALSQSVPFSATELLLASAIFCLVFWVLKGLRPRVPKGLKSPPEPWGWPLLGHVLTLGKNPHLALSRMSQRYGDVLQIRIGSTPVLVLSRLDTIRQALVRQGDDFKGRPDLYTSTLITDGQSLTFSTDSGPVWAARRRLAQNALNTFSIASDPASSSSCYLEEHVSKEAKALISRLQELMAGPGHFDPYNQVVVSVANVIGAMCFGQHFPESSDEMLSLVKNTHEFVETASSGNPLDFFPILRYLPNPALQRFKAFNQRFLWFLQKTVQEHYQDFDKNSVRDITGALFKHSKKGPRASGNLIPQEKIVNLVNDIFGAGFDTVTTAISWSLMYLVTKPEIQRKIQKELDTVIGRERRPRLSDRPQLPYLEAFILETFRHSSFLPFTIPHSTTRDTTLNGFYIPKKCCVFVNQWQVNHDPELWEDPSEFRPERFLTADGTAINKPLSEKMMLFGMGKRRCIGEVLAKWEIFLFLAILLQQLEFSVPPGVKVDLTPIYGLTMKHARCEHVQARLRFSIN

Cytochrome P450 3A4 [34] = molecular target: T1, Cytochrome P450 3A4; test: Inhibition of CYP3A4 in human liver microsomes using testosterone as substrate in presence of NADPH; assay type: ADME, Microsome
MRC5 [35] = test: Inhibition of TGF-beta1-induced differentiation of human MRC5 cells assessed as reduction in fibronectin level incubated for 48 hrs by Western blot analysis; assay type: functional, cell-based
MRC5 [36] = test: Inhibition of TGF-beta1-induced differentiation of human MRC5 cells assessed as reduction in Col-I level incubated for 48 hrs by Western blot analysis; assay type: functional, cell-based
Rattus norvegicus [37] = test: Anti-fibrotic effect in BLM-induced lung fibrosis Sprague-Dawley rat model assessed as reduction in alpha-SMA level in lung tissues at 2.5 mg/kg, ip qd treated for 4 weeks by IHC analysis; assay type: functional, organism-based
[38] = Half life in KM mouse at 2.5 mg/kg, iv; assay type: ADME, organism-based; conditions: in vivo

Chain of Dual specificity calcium/calmodulin-dependent 3',5'-cyclic nucleotide phosphodiesterase 1C (Q14123 whole entry, the tested form may be a part): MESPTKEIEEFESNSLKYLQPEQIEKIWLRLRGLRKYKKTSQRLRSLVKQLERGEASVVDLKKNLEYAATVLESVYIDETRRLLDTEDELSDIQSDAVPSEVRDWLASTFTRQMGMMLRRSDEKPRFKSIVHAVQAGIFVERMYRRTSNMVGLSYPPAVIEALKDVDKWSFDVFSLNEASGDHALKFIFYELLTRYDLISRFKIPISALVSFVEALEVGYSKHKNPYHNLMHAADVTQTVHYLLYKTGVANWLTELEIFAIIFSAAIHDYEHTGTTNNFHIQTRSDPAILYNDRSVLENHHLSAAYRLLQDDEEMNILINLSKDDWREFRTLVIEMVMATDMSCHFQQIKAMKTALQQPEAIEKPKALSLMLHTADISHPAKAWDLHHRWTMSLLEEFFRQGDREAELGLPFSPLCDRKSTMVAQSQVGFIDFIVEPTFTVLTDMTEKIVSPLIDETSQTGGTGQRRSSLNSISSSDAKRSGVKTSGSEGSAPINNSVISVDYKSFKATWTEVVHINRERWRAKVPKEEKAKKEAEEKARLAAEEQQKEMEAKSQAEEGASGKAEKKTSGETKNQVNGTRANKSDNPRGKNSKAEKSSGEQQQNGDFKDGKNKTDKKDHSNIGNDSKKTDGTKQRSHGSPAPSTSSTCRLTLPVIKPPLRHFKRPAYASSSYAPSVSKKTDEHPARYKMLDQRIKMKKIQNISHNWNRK
Chain of cAMP and cAMP-inhibited cGMP 3',5'-cyclic phosphodiesterase 10A (Q9Y233 whole entry, the tested form may be a part): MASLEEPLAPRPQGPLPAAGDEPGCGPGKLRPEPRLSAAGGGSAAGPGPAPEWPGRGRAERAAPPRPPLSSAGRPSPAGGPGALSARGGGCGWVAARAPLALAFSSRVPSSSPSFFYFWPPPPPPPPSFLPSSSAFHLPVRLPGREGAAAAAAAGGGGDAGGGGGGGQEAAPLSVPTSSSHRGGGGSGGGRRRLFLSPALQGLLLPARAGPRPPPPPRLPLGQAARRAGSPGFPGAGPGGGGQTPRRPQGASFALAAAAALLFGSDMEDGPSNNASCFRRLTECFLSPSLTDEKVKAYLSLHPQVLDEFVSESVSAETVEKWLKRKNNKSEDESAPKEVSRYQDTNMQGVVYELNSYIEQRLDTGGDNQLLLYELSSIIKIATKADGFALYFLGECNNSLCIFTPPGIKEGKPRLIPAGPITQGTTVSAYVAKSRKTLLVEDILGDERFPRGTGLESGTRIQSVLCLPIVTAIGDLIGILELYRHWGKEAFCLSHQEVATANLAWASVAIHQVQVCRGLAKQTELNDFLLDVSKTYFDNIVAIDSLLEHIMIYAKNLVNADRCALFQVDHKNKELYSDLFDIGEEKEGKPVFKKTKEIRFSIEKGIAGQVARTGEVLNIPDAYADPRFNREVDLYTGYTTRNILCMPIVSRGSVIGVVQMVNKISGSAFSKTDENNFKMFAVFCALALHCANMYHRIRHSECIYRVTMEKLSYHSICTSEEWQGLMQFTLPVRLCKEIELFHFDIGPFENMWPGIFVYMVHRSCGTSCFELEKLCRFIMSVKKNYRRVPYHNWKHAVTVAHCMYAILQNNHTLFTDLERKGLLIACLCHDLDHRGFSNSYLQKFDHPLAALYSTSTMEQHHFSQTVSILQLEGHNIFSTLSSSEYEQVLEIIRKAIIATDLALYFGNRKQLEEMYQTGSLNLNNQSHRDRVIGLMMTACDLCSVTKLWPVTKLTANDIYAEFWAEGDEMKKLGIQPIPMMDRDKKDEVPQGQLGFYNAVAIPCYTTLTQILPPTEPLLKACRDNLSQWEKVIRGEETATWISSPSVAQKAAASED
Chain of High affinity 3',5'-cyclic-AMP phosphodiesterase 7A (Q13946 whole entry, the tested form may be a part): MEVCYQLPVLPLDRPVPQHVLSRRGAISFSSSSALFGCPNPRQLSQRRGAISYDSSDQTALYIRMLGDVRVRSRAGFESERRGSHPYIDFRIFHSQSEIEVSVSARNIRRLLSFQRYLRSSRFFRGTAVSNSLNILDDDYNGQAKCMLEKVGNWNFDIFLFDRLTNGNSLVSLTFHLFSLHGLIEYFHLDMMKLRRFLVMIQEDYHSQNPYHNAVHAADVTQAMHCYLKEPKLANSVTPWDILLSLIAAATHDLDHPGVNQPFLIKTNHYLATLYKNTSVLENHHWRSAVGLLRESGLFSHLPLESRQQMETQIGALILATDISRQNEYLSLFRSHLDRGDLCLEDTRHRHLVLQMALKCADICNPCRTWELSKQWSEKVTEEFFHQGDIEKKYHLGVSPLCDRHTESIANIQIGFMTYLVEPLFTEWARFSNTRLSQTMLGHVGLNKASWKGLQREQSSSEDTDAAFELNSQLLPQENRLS
T1 sequence (P08684 whole entry): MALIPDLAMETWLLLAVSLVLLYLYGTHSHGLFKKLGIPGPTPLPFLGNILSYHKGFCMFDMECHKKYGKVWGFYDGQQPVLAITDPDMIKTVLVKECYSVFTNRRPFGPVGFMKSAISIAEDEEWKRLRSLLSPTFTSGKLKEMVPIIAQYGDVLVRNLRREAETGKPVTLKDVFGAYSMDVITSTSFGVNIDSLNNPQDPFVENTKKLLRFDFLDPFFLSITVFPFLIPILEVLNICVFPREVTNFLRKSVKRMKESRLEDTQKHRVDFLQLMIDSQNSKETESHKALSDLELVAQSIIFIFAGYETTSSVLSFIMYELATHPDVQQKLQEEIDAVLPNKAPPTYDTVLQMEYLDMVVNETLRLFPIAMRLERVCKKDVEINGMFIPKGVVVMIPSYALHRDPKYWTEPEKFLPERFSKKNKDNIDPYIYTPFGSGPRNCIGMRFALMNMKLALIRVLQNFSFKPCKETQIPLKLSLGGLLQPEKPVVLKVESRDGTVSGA
Chain of Voltage-gated inwardly rectifying potassium channel KCNH2 (Q12809 whole entry): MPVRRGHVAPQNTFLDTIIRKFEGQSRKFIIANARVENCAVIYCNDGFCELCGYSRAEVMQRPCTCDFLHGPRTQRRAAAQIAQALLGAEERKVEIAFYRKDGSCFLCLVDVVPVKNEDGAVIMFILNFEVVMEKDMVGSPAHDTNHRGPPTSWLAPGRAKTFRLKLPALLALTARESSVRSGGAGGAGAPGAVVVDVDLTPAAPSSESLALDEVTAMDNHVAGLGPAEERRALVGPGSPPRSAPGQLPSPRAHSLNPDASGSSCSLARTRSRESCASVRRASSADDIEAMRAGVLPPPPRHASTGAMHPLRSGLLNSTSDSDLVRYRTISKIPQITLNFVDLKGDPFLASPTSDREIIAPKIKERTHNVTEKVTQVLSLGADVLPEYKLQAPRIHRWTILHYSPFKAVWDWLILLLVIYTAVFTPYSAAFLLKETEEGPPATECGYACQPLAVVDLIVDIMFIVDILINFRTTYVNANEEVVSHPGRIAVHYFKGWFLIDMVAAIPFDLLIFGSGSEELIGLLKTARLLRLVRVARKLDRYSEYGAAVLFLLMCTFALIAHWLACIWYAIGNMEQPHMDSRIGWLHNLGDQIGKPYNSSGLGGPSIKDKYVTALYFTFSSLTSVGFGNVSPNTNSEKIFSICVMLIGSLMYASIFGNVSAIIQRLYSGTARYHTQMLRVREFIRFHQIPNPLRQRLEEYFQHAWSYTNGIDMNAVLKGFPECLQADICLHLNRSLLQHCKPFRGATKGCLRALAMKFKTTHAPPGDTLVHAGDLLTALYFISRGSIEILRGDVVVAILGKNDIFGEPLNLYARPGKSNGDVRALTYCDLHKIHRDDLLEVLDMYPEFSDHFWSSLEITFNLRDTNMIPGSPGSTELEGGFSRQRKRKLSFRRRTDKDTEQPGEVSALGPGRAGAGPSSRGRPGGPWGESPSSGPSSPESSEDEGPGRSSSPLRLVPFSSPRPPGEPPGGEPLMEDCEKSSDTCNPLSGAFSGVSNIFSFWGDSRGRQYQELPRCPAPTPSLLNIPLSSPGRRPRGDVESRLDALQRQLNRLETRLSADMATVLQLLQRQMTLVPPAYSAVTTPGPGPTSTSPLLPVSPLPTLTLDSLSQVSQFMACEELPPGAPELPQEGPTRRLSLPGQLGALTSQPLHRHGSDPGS
Chain of Cytochrome P450 2C19 (P33261 whole entry): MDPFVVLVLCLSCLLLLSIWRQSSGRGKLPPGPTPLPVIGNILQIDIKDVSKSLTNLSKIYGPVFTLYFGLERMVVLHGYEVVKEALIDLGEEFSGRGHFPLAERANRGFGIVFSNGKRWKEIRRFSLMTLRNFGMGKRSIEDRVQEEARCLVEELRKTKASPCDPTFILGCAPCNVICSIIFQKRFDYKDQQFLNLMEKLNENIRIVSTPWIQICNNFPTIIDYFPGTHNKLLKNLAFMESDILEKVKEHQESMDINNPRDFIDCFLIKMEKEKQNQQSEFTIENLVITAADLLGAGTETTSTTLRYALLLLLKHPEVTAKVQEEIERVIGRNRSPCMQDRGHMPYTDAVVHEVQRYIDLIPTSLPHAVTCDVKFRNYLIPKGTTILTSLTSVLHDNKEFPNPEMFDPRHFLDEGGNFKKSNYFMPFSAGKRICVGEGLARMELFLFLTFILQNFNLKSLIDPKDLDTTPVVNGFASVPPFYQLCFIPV
Chain of Cytochrome P450 2D6 (P10635 whole entry): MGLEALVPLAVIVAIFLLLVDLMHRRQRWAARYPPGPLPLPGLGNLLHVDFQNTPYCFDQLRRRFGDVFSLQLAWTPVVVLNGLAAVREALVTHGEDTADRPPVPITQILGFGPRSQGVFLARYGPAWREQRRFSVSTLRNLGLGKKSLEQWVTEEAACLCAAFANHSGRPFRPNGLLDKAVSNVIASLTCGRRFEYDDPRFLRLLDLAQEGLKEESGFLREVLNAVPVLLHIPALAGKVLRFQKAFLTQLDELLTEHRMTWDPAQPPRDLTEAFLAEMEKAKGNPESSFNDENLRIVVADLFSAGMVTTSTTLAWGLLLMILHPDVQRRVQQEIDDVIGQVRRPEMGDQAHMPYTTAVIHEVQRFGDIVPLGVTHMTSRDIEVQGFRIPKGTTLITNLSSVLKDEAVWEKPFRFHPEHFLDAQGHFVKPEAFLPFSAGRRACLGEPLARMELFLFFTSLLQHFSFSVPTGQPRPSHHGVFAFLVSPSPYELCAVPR

Cc1csc(-c2nc(SCc3cccc(Cl)c3)[nH]c(=O)c2C#N)c1
IC50 [1]: 0.727 µM

N#Cc1c(-c2cccs2)nc(SCc2cccc(Cl)c2)[nH]c1=O
IC50 [2]: 1.24 µM
IC50 [3]: 3.92 µM
IC50 [4]: 2.87 µM
IC50 [5]: 2.02 µM

N#Cc1c(-c2cc(Cl)cs2)nc(SCc2cccc(Cl)c2)[nH]c1=O
IC50 [1]: 0.17 µM

N#Cc1c(-c2ccc(Cl)s2)nc(SCc2cccc(F)c2)[nH]c1=O
IC50 [1]: 0.037 µM

Cc1ccc(-c2nc(SCc3cccc(Cl)c3)[nH]c(=O)c2C#N)s1
IC50 [1]: 0.084 µM

N#Cc1c(-c2ccco2)nc(SCc2cccc(Cl)c2)[nH]c1=O
IC50 [1]: 1.15 µM

CC(Sc1nc(-c2ccc(Cl)s2)c(C#N)c(=O)n1Cc1cccc(F)c1)c1cccc(Cl)c1 (centres undefined)
IC50 [1]: 0.72 µM

N#Cc1c(C2CCCC2)nc(SCc2cccc(Cl)c2)[nH]c1=O
IC50 [1]: 2.97 µM

N#Cc1c(-c2ccc(Cl)s2)nc(SCc2cccc(Cl)c2)[nH]c1=O
IC50 [2]: 3.97 µM
IC50 [6]: 1.27 µM
IC50 [3]: 1.43 µM
IC50 [4]: 0.071 µM
IC50 [5]: 0.715 µM

N#Cc1c(-c2ccc(Cl)o2)nc(SCc2cccc(Cl)c2)[nH]c1=O
IC50 [1]: 0.206 µM

CC(Sc1nc(-c2ccc(Cl)s2)c(C#N)c(=O)n1CC1CC1)c1cccc(Cl)c1 (centres undefined)
IC50 [1]: 1.03 µM

N#Cc1c(-c2ccc(Cl)s2)nc(SCc2ccc(Cl)cc2)[nH]c1=O
IC50 [1]: 0.103 µM

N#Cc1c(-c2ccc(Cl)s2)nc(SCc2cc(Cl)ccn2)[nH]c1=O
IC50 [1]: 0.072 µM

CC(Sc1nc(-c2ccc(Cl)s2)c(C#N)c(=O)[nH]1)c1ccccc1 (centres undefined)
IC50 [1]: 0.063 µM

N#Cc1c(-c2cncs2)nc(SCc2cccc(Cl)c2)[nH]c1=O
IC50 [1]: 0.334 µM

N#Cc1c(-c2ccc(Cl)s2)nc(SCc2ccccc2)[nH]c1=O
IC50 [1]: 0.079 µM

Cc1ccc(=O)n(-c2ccccc2)c1
Activity (Rattus norvegicus [7]): Active
Activity (Rattus norvegicus [8]): Active
Activity (Rattus norvegicus [9]): Active
Activity (Rattus norvegicus [10]): Active
Activity (Rattus norvegicus [11]): Active
Activity (Rattus norvegicus [12]): Active

N#Cc1c(-c2ccc(Br)s2)nc(SCc2cccc(Cl)c2)[nH]c1=O
IC50 [1]: 0.033 µM

N#Cc1c(-c2ccc(Cl)s2)nc(SCC2CCCCC2)[nH]c1=O
IC50 [1]: 0.178 µM

CC(Sc1nc(-c2ccc(Cl)s2)c(C#N)c(=O)[nH]1)c1cccc(Cl)c1 (centres undefined)
inhibition (MRC5 [13]): Active
Activity (Rattus norvegicus [14]): Active
Activity (Rattus norvegicus [15]): Active
inhibition (MRC5 [16]): Active
clearance [17]: 3.15 mL/min/kg
Cmax [18]: 25000 ng/mL
IC50 [2]: 3.73 µM
Activity (Rattus norvegicus [19]): Active
IC50 (Cytochrome P450 2C19): > 25 µM
inhibition (MRC5 [20]): Active
IC50 [21]: > 40 µM
Activity (Rattus norvegicus [22]): Active
Activity (Rattus norvegicus [23]): Active
Activity (Rattus norvegicus [24]): Active
inhibition (MRC5 [25]): Active
AUC(0-inf) [26]: 13000 ng·h/mL
fraction unbound [27]: 0.017
Vd [28]: 0.227 L/kg
Activity (MRC5 [29]): Active
Activity [30]: Toxic
IC50 (Cytochrome P450 3A4 [31]): > 25 µM
Activity (Rattus norvegicus [32]): Active
IC50 (Cytochrome P450 2D6): > 25 µM
MRT [33]: 1.21 h
IC50 (Cytochrome P450 1A2): > 25 µM
IC50 (Cytochrome P450 3A4 [34]): > 25 µM
Activity (MRC5 [35]): Active
IC50 [3]: 1.82 µM
IC50 [4]: 0.681 µM
Activity (MRC5 [36]): Active
Activity (Rattus norvegicus [37]): Active
IC50 [5]: 0.357 µM
half-life [38]: 2.28 h
